{
  "source": "patent US9408856B2",
  "about": "“Topical steroidal formulations” (Temple University—Of The Commonwealth System of Higher …, priority 2008, dated 2016)",
  "key": {"[1]": {"test_system": "TPA-stimulated epidermal DNA synthesis in mouse epidermis", "assay": "TPA-induced epidermal DNA synthesis in mouse epidermis, oral fluasterone", "assay_type": "in vivo, CD-1 mice", "conditions": "20 h", "experimental": "In dose-response experiments the anti-hyperplastic efficacy of fluasterone in TPA-treated mouse epidermis to determine bioavailability following different routes of administration was measured. Mice were treated with a single dose of fluasterone (either orally, subcutaneously, or transdermally) followed by a single application of TPA to the shaved back one hour latter. In case of transdermal administration, fluasterone is applied in a topical formulation to the shaved abdomen to allow for systemic absorption to the back of the animal. Twenty hours after TPA application, the mice are injected with 60 μCi of [3H] thymidine, sacrificed 20 minutes later, and a 2×2 cm2 of skin from the shaved back is excised and processed for the determination of the amount of [3H] thymidine incorporated per unit of epidermal DNA. (Hennings et. al., Cancer Res. 28:543-552, 1968).\nFluasterone suspensions were prepared using sesame oil as vehicle. Micronized fluasterone was obtained from Pharmaceutics International, Inc. Five suspensions were prepared—100 mg/kg (13 mg/mL), 200 mg/kg (26.5 mg/mL), 400 mg/kg (52.4 mg/mL), 800 mg/kg (105.5 mg/mL), and 1200 mg/kg (158.3 mg/mL). The fluasterone for each suspension was weighed, placed into a plastic vial, and the required volume of sesame oil was added to the vial. The fluasterone was suspended in the sesame oil with the use of a Tekmar Tissumizer. Magnetic stirrer bars were added to the various suspensions which were stirred on a magnetic stirrer prior to treatment. Control and TPA groups received sesame oil alone.\nFemale CD-1 mice were obtained from Charles River Laboratories, Wilmington, Mass. at 35-37 days of age.\nThe mice were housed three per cage in plastic shoebox cages on Alphacel bedding with 12 hours of alternating light and dark in the CAF Animal Facility. The mice had ad libitum access to Purina 5.015 chow and acidified tap water (pH≦2.6). The mice were shaved, weighed and distributed into groups of three. • Control The mice were treated orally with 0.2 mL of sesame oil. One hour after treatment with sesame oil, the mice were treated topically with 0.2 mL of acetone. • TPA The mice were treated orally with 0.2 mL of sesame oil. […] One hour after treatment with fluasterone, the mice were treated topically with 2 μg of TPA in 0.2 mL of acetone.\nThe mice were sacrificed 20 hours after treatment by an overdose of CO2. Twenty minutes prior to sacrifice, the mice were injected with 60 μCi of [^3H]thymidine (Amersham). The mice were treated with a depilatory to remove any residual hair. A 2×2 cm^2 piece of skin was excised, placed in ice water for 30 seconds, then in 55° C. water for 30 seconds, then in ice water again for 30 seconds. The epidermis was s raped off using a scalpel and the scrapings were placed into ice cold 0.4N TCA. The scrapings were homogenized using a Tekmar Tissumizer (80% power for 30 seconds). The homogenates were centrifuged for 20 minutes at 3,000×g. The precipitates were washed 3× with 0.2N TCA. The TCA was removed and the precipitates were stored at −20° C. overnight. The next day, the precipitates were washed 2× with absolute ethanol. The DNA in each sample was hydrolyzed with 0.5N TCA for 30 minutes at 90°. The tubes were centrifuged for 20 minutes at 3000×g. A 0.2 mL aliquot of each hydrolysate was counted in a LKB Rackbeta scintillation counter using Scintiverse II BD as the counting medium. DNA content was determined by the Burton diphenylamine assay.\n102.7 mg of Micronized fluasterone I was weighed using a Mettler AE-50 balance, transferred to a glass scintillation vial, and homogenized in 6.0 mL of carboxymethylcellulose-Tween 80 using a Tekmar Tissumizer (200 mg/kg micronized I suspension, 200 MI). 88.4 mg of micronized fluasterone II was then weighed, transferred to a glass scintillation vial, and homogenized in 5.2 mL of CMC-Tween using a Tekmar Tissumizer (200 mg/kg micronized II suspension, 200 MII)."}, "[2]": {"test_system": "TPA-stimulated epidermal DNA synthesis in mouse epidermis", "assay": "TPA-induced epidermal DNA synthesis in mouse epidermis, transdermal fluasterone", "assay_type": "in vivo, CD-1 mice", "conditions": "20 h"}, "[3]": {"conditions": "Table 18, TPA 2 μg topical after CMC-Tween p.o. only, single mice"}, "[4]": {"conditions": "TPA 2 μg (back) after Cremophor EL vehicle only, single mice"}, "[5]": {"conditions": "TPA 2 μg (back) after Cremophor EL:ethanol (50:50 v/v) vehicle only, single mice"}, "[6]": {"conditions": "TPA 2 μg (back) after Tween 80:ethanol (50:50 v/v) vehicle only, single mice"}, "[7]": {"conditions": "TPA 2 μg (back) after carbitol vehicle only, single mice"}, "[8]": {"conditions": "TPA 2 μg (back) after ethanol:limonene:isopropyl myristate (81:15:4) vehicle only, single mice"}, "[9]": {"conditions": "TPA 2 μg (back) after ethanol:limonene:isopropyl myristate (81:15:4) vehicle only, single mice and group mean"}, "[10]": {"conditions": "TPA 2 μg (back) after ethanol:water:Tween 80 (76:19:5) vehicle only, single mice"}, "[11]": {"conditions": "TPA 2 μg (back) after ethanol:water:Tween 80 (76:19:5) vehicle only, single mice and group mean"}},
  "note": "Where “and” joins values, the source holds several entries; their conditions need not be identical. Equal entries are not always repeated.",
  "data": [
    {"molecule": "CCCCCCCCCCCCCC(=O)O[C@@H]1[C@@H](C)[C@@]2(O)[C@@H](C=C(CO)C[C@]3(O)C(=O)C(C)=C[C@@H]23)[C@@H]2C(C)(C)[C@]12OC(C)=O", "note": "[TPA, 12-O-tetradecanoylphorbol-13-acetate, reference compound]", "values": [
      {"measurement": "μg DNA", "setting": "[1]; Table 4, TPA 2 μg topical, sesame oil p.o. only, 2×2 cm2 skin, group mean", "value": "14.1 ± 1.3", "unit": "µg"},
      {"measurement": "cpm/μg DNA", "setting": "[1]; Table 4, TPA 2 μg topical, sesame oil p.o. only, group mean", "value": "641.5 ± 115.2", "unit": "cpm/μg DNA"},
      {"measurement": "corrected cpm", "setting": "[1]; [3]", "value": "9,877 cpm and 8,235 cpm and 8,699 cpm"},
      {"measurement": "μg DNA/0.2 ml", "setting": "[1]; [3]", "value": "28.0 μg DNA/0.2 ml and 31.9 μg DNA/0.2 ml and 28.2 μg DNA/0.2 ml"},
      {"measurement": "cpm/μg DNA", "setting": "[1]; Table 18, TPA 2 μg topical after CMC-Tween p.o. only, single mice and group mean", "value": "351.6 cpm/μg DNA and 258.6 cpm/μg DNA and 308.5 cpm/μg DNA"},
      {"measurement": "cpm/μg DNA", "setting": "[1]; Table 18, TPA 2 μg topical after CMC-Tween p.o. only, single mice and group mean, group mean", "value": "306.1 ± 46.8", "unit": "cpm/μg DNA"},
      {"measurement": "μg DNA", "setting": "[1]; Table 20, TPA 2 μg topical after sesame oil and suspension vehicle p.o. only, group mean", "value": "13.9 ± 0.3", "unit": "µg"},
      {"measurement": "corrected cpm", "setting": "[2]; [4]", "value": "16,842 cpm and 13,849 cpm"},
      {"measurement": "cpm", "setting": "[2]; [4]", "value": "16,877 cpm and 13,884 cpm"},
      {"measurement": "μg DNA/0.2 mL", "setting": "[2]; [4]", "value": "28.7 μg DNA/0.2 mL and 30.4 μg DNA/0.2 mL"},
      {"measurement": "cpm/μg DNA", "setting": "[2]; TPA 2 μg (back) after Cremophor EL vehicle only, single mice and group mean", "value": "586.8 cpm/μg DNA and 455.6 cpm/μg DNA and 521.2 ± 92.8 cpm/μg DNA"},
      {"measurement": "corrected cpm", "setting": "[2]; [5]", "value": "54,709 cpm and 54,308 cpm"},
      {"measurement": "cpm", "setting": "[2]; [5]", "value": "54,744 cpm and 54,343 cpm"},
      {"measurement": "μg DNA/0.2", "setting": "[2]; [5]", "value": "36.9 μg DNA/0.2 and 35.7 μg DNA/0.2"},
      {"measurement": "cpm/μg DNA", "setting": "[2]; TPA 2 μg (back) after Cremophor EL:ethanol (50:50 v/v) vehicle only, single mice and group mean", "value": "1,482.6 cpm/μg DNA and 1,521.2 cpm/μg DNA"},
      {"measurement": "corrected cpm", "setting": "[2]; [6]", "value": "4,276 cpm and 3,114 cpm"},
      {"measurement": "cpm", "setting": "[2]; [6]", "value": "4,301 cpm and 3,139 cpm"},
      {"measurement": "μg DNA/0.2", "setting": "[2]; [6]", "value": "17.5 μg DNA/0.2 and 18.6 μg DNA/0.2"},
      {"measurement": "cpm/μg DNA", "setting": "[2]; TPA 2 μg (back) after Tween 80:ethanol (50:50 v/v) vehicle only, single mice and group mean", "value": "244.3 cpm/μg DNA and 167.4 cpm/μg DNA"},
      {"measurement": "corrected cpm", "setting": "[2]; [7]", "value": "6,729 cpm and 7,496 cpm"},
      {"measurement": "cpm", "setting": "[2]; [7]", "value": "6,764 cpm and 7,531 cpm"},
      {"measurement": "μg DNA/0.2 mL", "setting": "[2]; [7]", "value": "20.3 μg DNA/0.2 mL and 21.2 μg DNA/0.2 mL"},
      {"measurement": "corrected cpm", "setting": "[2]; [8]", "value": "8,545 cpm and 11,109 cpm"},
      {"measurement": "cpm", "setting": "[2]; [8]", "value": "8,574 cpm and 11,138 cpm"},
      {"measurement": "cpm/μg DNA", "setting": "[2]; [9]", "value": "277.4 cpm/μg DNA and 322.0 cpm/μg DNA"},
      {"measurement": "μg DNA/0.2 mL", "setting": "[2]; [9]", "value": "30.8 μg DNA/0.2 mL and 34.5 μg DNA/0.2 mL"},
      {"measurement": "corrected cpm", "setting": "[2]; [10]", "value": "7,274 cpm and 6,557 cpm"},
      {"measurement": "cpm", "setting": "[2]; [10]", "value": "7,303 cpm and 6,586 cpm"},
      {"measurement": "cpm/μg DNA", "setting": "[2]; [11]", "value": "208.4 cpm/μg DNA and 186.3 cpm/μg DNA"},
      {"measurement": "μg DNA/0.2 mL", "setting": "[2]; [11]", "value": "34.9 μg DNA/0.2 mL and 35.2 μg DNA/0.2 mL"}
    ]}
  ]
}
